Assay results from patent US20240238284A1, “COMPOUNDS AND COMPOSITIONS FOR THE TREATMENT OF MPNST” (Novartis AG, priority 2021, published 2024).

Columns and labels:
[1] = tested on: Rb-positive cell lines derived from diverse cancer types; experiment: Rb phosphorylation and cell cycle progression in Rb-positive cell lines; format: cell-based; conditions: more than 40 Rb-positive cell lines
NF1-MPNST PDX models = experiment: tumor growth in NF1-MPNST patient-derived xenograft (PDX) models in NRG mice; format: in vivo; conditions: oral gavage, TNO155 7.5 mg/kg, ribociclib 75 mg/kg once daily, up to 42 days
Method: The PDX models of Example 1 were developed and characterized according to Dehrner, et al., JCI Insight 2021: 6(6):e146351 and Pollard, K., et al., Sci Data, 2020; 7:184). NRG (NOD-Rag1^null IL 2rg^null, NOD rag gamma) mice are used for all experiments.
Tumor response, survival and toxicity data were collected and analyzed. To form tumors, 1-2 million NF1-MPNST PDX-derived cells (JH-2-031, JH-2-079, JH-2-002, WU-225, WU-386, or WU-545)) in 50% Matrigel (BD Biosciences) were injected subcutaneously in 4- to 6-week-old female NRG mice. The tumors were measured and mice weighed twice weekly once tumors began to form. Drugs were given beginning when tumors reached 150-200 mm^3. Mice were treated with vehicle, single agent (A or B or C) or combination (A+B or B+C) for up to 42 days. Each group consisted of three to five mice. Tumor volume was calculated using the formula: V=L×W2 (π/6), where L=longest diameter and W=width.

p-ERK in WU-386 tumors = experiment: pharmacodynamic p-ERK levels in WU-386 PDX tumors; format: in vivo, mice; conditions: WU-386 tumors collected 4-hour post end-point treatment (4 weeks)
[2] = tested on: ten native NF1-MPNST cell lines; experiment: cell number by trypan blue exclusion, native NF1-MPNST cell lines; format: cell-based; conditions: TNO155 0.3, 1, 3 μM; ribociclib 1, 3 μM; about 1 week
Description: (§1) Cell numbers were counted using trypan blue exclusion assay (Sigma-Aldrich) and normalized to the DMSO control.

[3] = tested on: trametinib resistant lines (ST8814Res and NF90.8Res); experiment: cell number by trypan blue exclusion, trametinib resistant lines; format: cell-based; conditions: TNO155 0.3, 1, 3 μM, ribociclib 1, 3 μM, about 1 week
Description: as §1

Row | Structure (SMILES) | Retinoblastoma protein (Rb) phosphorylation and G1 to S phase cell cycle progression [1] | anti-tumor activity / tumor growth inhibition in PDX models (NF1-MPNST PDX models) | p-ERK levels in tumors (p-ERK in WU-386 tumors) | cell number response normalized to DMSO control [2] | cell number response normalized to DMSO control [3]
1 | CN(C)C(=O)c1cc2cnc(Nc3ccc(N4CCNCC4)cn3)nc2n1C1CCCC1 [Ribociclib, 7-cyclopentyl-N,N-dimethyl-2-((5-(piperazin-1-yl)pyridin-2-yl)amino)-7H-pyrrolo[2,3-d]pyrimidine-6-carboxamide] | inhibited Retinoblastoma protein (Rb) phosphorylation and interfered with G1 to S phase cell cycle progression |  |  |  | 
2 | C[C@@H]1OCC2(CCN(c3cnc(Sc4ccnc(N)c4Cl)c(N)n3)CC2)[C@@H]1N [TNO155, (3S,4S)-8-(6-amino-5-((2-amino-3-chloropyridin-4-yl)thio)pyrazin-2-yl)-3-methyl-2-oxa-8-azaspiro[4.5]decan-4-amine] |  | substantial anti-tumor activity as a single agent | decrease in p-ERK levels | partial sensitivity | limited activity
